According to US8921376B2, “Pyrrolopyridines useful as inhibitors of protein kinase” (Vertex Pharmaceuticals Incorporated, priority 2005, dated 2014):

Columns and labels:
Format in all cases: biochemical
JAK3 = biological target: T1, JAK3 (Homo sapiens, UniProt P52333); test: JAK3 inhibition assay (33P incorporation into poly(Glu)4Tyr)
T1 sequence (P52333 1-1124): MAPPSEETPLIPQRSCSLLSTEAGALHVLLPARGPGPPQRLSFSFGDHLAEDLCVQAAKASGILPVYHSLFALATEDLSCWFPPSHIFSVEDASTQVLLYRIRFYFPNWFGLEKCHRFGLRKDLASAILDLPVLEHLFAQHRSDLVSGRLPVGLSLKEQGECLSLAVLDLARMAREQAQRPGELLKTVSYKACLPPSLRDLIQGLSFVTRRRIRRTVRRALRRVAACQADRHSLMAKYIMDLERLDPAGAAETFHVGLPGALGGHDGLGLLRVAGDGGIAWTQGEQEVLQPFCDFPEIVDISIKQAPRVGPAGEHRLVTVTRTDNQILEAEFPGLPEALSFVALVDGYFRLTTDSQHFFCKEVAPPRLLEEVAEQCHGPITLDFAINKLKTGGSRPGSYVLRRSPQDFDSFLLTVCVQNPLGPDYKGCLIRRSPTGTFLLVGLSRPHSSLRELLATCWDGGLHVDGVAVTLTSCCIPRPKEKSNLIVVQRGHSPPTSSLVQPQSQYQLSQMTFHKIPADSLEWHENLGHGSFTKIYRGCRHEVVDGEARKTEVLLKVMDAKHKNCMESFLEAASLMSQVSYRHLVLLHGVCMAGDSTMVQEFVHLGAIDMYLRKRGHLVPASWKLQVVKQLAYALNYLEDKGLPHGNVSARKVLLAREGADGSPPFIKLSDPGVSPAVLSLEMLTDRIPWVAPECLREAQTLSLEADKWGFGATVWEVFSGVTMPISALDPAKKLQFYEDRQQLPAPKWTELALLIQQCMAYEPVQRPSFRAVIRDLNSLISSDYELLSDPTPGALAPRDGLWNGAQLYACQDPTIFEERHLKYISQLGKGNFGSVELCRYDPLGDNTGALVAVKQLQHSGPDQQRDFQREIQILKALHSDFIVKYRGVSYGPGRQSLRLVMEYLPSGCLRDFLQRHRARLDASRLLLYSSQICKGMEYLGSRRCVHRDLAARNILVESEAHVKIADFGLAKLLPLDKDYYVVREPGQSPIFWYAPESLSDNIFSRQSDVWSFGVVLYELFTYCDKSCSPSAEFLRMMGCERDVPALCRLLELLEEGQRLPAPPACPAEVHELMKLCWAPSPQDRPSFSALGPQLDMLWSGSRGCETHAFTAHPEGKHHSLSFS
Procedure, shortened: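 Human JAK3 at 1 nM phosphorylated 1 μM poly(Glu)4Tyr using 5 μM [33P]ATP in HEPES pH 7.4 buffer with MgCl2, DTT and BSA. Reactions ran 20 min at 25° C. and were stopped with TCA. 33P incorporation was measured by scintillation after glass-fiber filter capture.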

JAK2 = JAK2 (Homo sapiens, UniProt O60674); test: JAK2 inhibition assay (as Example 3 with JAK-2 enzyme)
Sequence of JAK2 (O60674 whole entry): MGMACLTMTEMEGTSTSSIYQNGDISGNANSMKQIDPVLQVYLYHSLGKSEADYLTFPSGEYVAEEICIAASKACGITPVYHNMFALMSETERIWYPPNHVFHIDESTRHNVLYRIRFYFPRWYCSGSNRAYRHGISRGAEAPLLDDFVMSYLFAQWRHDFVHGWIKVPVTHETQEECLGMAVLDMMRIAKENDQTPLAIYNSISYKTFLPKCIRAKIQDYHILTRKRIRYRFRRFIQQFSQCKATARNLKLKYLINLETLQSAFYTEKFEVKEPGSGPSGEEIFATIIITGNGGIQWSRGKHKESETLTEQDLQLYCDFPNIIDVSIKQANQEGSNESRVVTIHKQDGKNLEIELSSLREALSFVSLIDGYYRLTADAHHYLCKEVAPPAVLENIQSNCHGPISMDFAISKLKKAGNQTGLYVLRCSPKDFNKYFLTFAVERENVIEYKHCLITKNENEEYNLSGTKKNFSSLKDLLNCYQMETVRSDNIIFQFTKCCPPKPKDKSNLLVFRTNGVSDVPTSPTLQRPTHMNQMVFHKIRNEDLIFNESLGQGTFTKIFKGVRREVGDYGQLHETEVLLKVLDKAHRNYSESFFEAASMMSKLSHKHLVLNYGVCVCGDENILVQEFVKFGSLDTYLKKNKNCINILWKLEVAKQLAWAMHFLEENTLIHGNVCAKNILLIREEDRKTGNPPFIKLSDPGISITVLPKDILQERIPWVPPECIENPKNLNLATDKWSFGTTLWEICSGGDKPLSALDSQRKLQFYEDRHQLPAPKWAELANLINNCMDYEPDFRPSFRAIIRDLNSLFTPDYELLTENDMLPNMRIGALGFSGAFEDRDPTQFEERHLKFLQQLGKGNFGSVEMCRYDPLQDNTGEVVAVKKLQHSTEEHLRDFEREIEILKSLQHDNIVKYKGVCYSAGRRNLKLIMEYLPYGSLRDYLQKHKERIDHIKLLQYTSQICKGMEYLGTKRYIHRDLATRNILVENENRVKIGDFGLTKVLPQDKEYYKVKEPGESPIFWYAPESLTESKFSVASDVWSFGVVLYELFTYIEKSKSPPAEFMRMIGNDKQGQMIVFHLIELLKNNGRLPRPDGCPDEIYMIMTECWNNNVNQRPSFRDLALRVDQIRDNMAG
Procedure, shortened: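 Radiometric JAK2 kinase assay: poly(Glu)4Tyr substrate at final 15 μM, ATP at final 12 μM with [33P]; buffer 100 mM HEPES pH 7.4, 1 mM DTT, 10 mM MgCl2, 25 mM NaCl, 0.01% BSA. 20 min at 25 °C, TCA-stopped, 33P incorporation counted after filter capture.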

ROCK I = ROCK I (Homo sapiens, UniProt Q13464); test: ROCK-I inhibition assay (radioactive enzyme assay, MBP substrate)
Sequence of ROCK I (Q13464 whole entry): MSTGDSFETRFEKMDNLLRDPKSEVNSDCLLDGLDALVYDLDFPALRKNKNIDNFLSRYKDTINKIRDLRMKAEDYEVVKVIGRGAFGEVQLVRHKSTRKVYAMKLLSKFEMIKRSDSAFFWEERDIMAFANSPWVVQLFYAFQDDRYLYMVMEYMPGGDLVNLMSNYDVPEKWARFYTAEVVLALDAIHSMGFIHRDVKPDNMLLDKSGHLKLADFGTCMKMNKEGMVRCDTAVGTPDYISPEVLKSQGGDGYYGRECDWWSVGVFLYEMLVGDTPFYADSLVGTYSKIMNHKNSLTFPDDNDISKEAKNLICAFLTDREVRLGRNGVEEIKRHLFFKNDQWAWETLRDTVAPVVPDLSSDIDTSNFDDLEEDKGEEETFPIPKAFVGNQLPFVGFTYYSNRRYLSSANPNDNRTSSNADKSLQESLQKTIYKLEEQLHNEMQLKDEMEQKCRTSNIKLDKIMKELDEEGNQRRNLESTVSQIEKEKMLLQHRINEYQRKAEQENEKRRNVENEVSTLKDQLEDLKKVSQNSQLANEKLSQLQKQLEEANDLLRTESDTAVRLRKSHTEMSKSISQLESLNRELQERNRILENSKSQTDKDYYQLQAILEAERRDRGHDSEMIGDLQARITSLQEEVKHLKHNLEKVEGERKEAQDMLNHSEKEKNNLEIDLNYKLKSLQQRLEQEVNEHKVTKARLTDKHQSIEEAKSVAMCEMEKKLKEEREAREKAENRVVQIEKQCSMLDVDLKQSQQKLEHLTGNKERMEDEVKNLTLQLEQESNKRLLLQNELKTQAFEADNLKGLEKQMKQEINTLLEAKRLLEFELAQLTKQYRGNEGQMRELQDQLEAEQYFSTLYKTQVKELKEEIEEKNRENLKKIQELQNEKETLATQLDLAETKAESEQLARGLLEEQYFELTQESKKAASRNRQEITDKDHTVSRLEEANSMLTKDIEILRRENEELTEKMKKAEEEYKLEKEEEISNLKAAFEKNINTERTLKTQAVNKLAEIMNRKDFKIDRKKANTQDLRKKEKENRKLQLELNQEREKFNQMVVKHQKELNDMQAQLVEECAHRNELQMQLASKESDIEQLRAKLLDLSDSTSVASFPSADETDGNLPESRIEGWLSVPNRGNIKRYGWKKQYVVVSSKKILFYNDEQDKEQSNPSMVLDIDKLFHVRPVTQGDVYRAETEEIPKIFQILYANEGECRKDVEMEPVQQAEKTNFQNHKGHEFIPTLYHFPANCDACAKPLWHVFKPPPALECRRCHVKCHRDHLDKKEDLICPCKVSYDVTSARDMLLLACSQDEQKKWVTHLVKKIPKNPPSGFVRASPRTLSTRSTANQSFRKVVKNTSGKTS
Procedure, shortened: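 Human ROCK at 5 nM phosphorylated 27 μM myelin basic protein with 13 μM [γ-33P]ATP (final) in HEPES pH 7.5, MgCl2, NaCl, DTT and 1.5% DMSO. Reactions ran 2 h at room temperature before TCA quench and filter-plate scintillation counting. After background subtraction, data were fit to give Ki(app).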

[1] = enzyme inhibition, Ki(app), Table 5
[2] = Table 6, enzyme inhibition data (Ki)

Row | SMILES | Ki (JAK3; enzyme inhibition, Table 5) [nM] | Ki (JAK2; enzyme inhibition, Table 5) [nM] | Ki (ROCK I; [1]) [nM] | Ki (JAK3; [2]) [nM] | Ki (JAK2; [2]) [nM] | Ki (ROCK I; [2]) [nM]
1 | C#CCN(C)C(=O)c1cc(-c2ccnc3[nH]ccc23)c[nH]1 [compound 307] |  |  |  | < 500 | < 500 | < 500
2 | N#CCCN(Cc1cccnc1)C(=O)c1cc(-c2ccnc3[nH]ccc23)c[nH]1 [compound 299] |  |  |  | < 500 | < 500 | < 500
3 | Clc1cnc2[nH]ccc2c1-c1cn[nH]c1 [compound 80, 5-Chloro-4-(1H-pyrazol-4-yl)-1H-pyrrolo[2,3b]pyridine] | < 500 | < 500 | 500 to 5000 |  |  | 
4 | c1ncc(-c2ccnc3[nH]ccc23)cn1 [compound 104, 4-Pyrimidin-5-yl-1H-pyrrolo[2,3-b]pyridine] | 500 to 5000 | 500 to 5000 | 500 to 5000 |  |  | 
5 | CCCS(=O)(=O)N1CC[C@H](Nc2c(Cl)cnc3[nH]ccc23)C1 [compound 178] |  |  |  | < 500 | < 500 | > 4000
6 | CCN(Cc1ccccc1)C(=O)c1cc(-c2ccnc3[nH]ccc23)c[nH]1 [compound 313] |  |  |  | < 500 | < 500 | < 500
7 | C=CCN(CC=C)C(=O)c1cc(-c2c(Cl)cnc3[nH]ccc23)c[nH]1 [compound 330] |  |  |  | < 500 | < 500 | 500 to 5000
8 | N#CCCNC(=O)c1cc(-c2ccnc3[nH]ccc23)c[nH]1 [compound 296] |  |  |  | < 500 | < 500 | < 500
9 | CN(CCO)c1cccc(-c2c(Cl)cnc3[nH]ccc23)n1 [compound 77] | < 500 | < 500 | 500 to 5000 |  |  | 
10 | c1ccc(-c2ccccc2-c2ccnc3[nH]ccc23)cc1 [compound 226] |  |  |  | > 5000 | > 5000 | > 4000
11 | O=C(c1cc(-c2c(F)cnc3[nH]ccc23)c[nH]1)N(CC1CC1)CC(F)(F)F [compound 387] |  |  |  | < 500 | < 500 | < 500
12 | CCC(=O)Nc1cccc(Nc2c(Cl)cnc3[nH]ccc23)c1 [compound 155] |  |  |  | < 500 | < 500 | > 4000
13 | N#CCC(=O)N1CC=C(c2ccnc3[nH]ccc23)CC1 [compound 66] | 500 to 5000 | < 500 | < 500 |  |  | 
14 | CN1CCN(Cc2cccc(-c3ccnc4[nH]ccc34)c2)CC1 [compound 89, 4-[3-(4-Methyl-piperazin-1-ylmethyl)-phenyl]-1H-pyrrolo[2,3-b]pyridine] | 500 to 5000 | 500 to 5000 | 500 to 5000 |  |  | 
15 | C=C(c1c(Cl)cnc2[nH]ccc12)C1CCCCC1 [compound 69] | < 500 | 500 to 5000 | 500 to 5000 |  |  | 
16 | O=C(c1cc(-c2ccnc3[nH]ccc23)c[nH]1)N1CCC(O)C1 (stereo not drawn) [compound 377] |  |  |  | 500 to 5000 | 500 to 5000 | < 500
17 | CC(C)CN(C)C(=O)c1cc(-c2c(Cl)cnc3[nH]ccc23)c[nH]1 [compound 341] |  |  |  | < 500 | < 500 | 500 to 5000
18 | CCCN(CC1CC1)C(=O)c1cc(-c2c(F)cnc3[nH]ccc23)c[nH]1 [compound 392] |  |  |  | < 500 | < 500 | 500 to 5000
19 | CC1CC(Nc2c(Cl)cnc3[nH]ccc23)CC(C)(C)C1 (stereo not drawn) [compound 162] |  |  |  | < 500 | < 500 | 500 to 5000
20 | Nc1ccccc1-c1c(Cl)cnc2[nH]ccc12 [compound 129] | > 5000 | > 5000 | 500 to 5000 |  |  | 
21 | O=C(c1cc(-c2c(Cl)cnc3[nH]ccc23)c[nH]1)N1CCC(O)C1 (stereo not drawn) [compound 350] |  |  |  | < 500 | < 500 | > 4000
22 | CCCOC(=O)N1CCCC(Nc2c(Cl)cnc3[nH]ccc23)C1 (stereo not drawn) [compound 174] |  |  |  | < 500 | < 500 | 500 to 5000
23 | CC1CCCCN1C(=O)c1csc(-c2ccnc3[nH]ccc23)n1 (stereo not drawn) [compound 420] |  |  |  | < 500 | < 500 | < 500
24 | O=C(c1cc(-c2c(Cl)cnc3[nH]ccc23)c[nH]1)N1CCCC(O)C1 (stereo not drawn) [compound 356] |  |  |  | < 500 | < 500 | 500 to 5000
25 | O=C(c1cc(-c2ccnc3[nH]ccc23)c[nH]1)N1CCC(CO)CC1 [compound 363] |  |  |  | 500 to 5000 | < 500 | 500 to 5000
26 | N#Cc1ccc(Cl)cc1Nc1c(Cl)cnc2[nH]ccc12 [compound 159] |  |  |  | < 500 | < 500 | > 4000

Other lines, results leading:

Row | Ki (JAK3; enzyme inhibition, Table 5) [nM] | Ki (JAK2; enzyme inhibition, Table 5) [nM] | Ki (ROCK I; [1]) [nM] | Ki (JAK3; [2]) [nM] | Ki (JAK2; [2]) [nM] | Ki (ROCK I; [2]) [nM] | SMILES
27 | 500 to 5000 | < 500 | 500 to 5000 |  |  |  | N#CCC(=O)N1CCCN(c2cccc(-c3ccnc4[nH]ccc34)n2)CC1 [compound 19]
28 | 500 to 5000 | 500 to 5000 | < 500 |  |  |  | CN(CCC(O)c1ccccc1)c1cccc(-c2ccnc3[nH]ccc23)n1 (stereo not drawn) [compound 53]
29 |  |  |  | < 500 | < 500 | < 500 | COCCN(CCOC)C(=O)c1ccc(-c2ccnc3[nH]ccc23)s1 [compound 324]
30 | > 5000 | < 500 | 500 to 5000 |  |  |  | O=C(Cc1ccccc1)Nc1cccc(-c2ccnc3[nH]ccc23)n1 [compound 99, N-(6-(1H-pyrrolo[2,3-b]pyridine-4-yl)pyridin-2-yl)phenylacetamide]
31 | < 500 | < 500 | < 500 |  |  |  | CN(C)c1cccc(-c2ccnc3[nH]ccc23)c1 [compound 31, Dimethyl-[3-(1H-pyrrolo[2,3-b]pyridin-4-yl)-phenyl]-amine]
32 | < 500 | 500 to 5000 | 500 to 5000 |  |  |  | C[C@H](Nc1ccnc(-c2ccnc3[nH]ccc23)n1)C(=O)NCC(F)(F)F [compound 120, (S)-2-(2-(1H-pyrrolo[2,3b]pyridin-4-yl)pyrimidin-4-ylamino)-N-(2,2,2-trifluoroethyl)propanamide]
33 |  |  |  | > 5000 | > 5000 | > 4000 | CC(C)(C)OCc1ccccc1-c1ccnc2[nH]ccc12 [compound 232]
34 | < 500 | < 500 | < 500 |  |  |  | N#CC1(c2cccc(-c3ccnc4[nH]ccc34)n2)CC1 [compound 101, 1-(6-(1H-pyrrolo[2,3-b]pyridin-4-yl)pyridin-2-yl)cyclopropanecarbonitrile]
35 | > 5000 | > 5000 | 500 to 5000 |  |  |  | CN1CCN(C(=O)c2cccc(-c3ccnc4[nH]ccc34)c2)CC1 [compound 95, (4-Methyl-piperazin-1-yl)-[3-(1H-pyrrolo[2,3-b]pyridin-4-yl)-phenyl]-methanone]
36 |  |  |  | 500 to 5000 | > 5000 | 500 to 5000 | CCCNC(=O)c1cccc(-c2ccnc3[nH]ccc23)c1 [compound 256]
37 |  |  |  | < 500 | < 500 | < 500 | CN(CCC#N)C(=O)c1ccc(-c2ccnc3[nH]ccc23)s1 [compound 322]
38 |  |  |  | < 500 | < 500 | < 500 | CC(C)(C(=O)NCC(F)(F)F)c1cccc(-c2ccnc3[nH]ccc23)n1 [compound 265]
39 |  |  |  | 500 to 5000 | 500 to 5000 | 500 to 5000 | CSc1ccccc1-c1ccnc2[nH]ccc12 [compound 239]
40 |  |  |  | > 5000 | > 5000 | > 4000 | CC(C)(C)C(=O)Nc1ncccc1-c1ccnc2[nH]ccc12 [compound 194]
41 | 500 to 5000 | 500 to 5000 | 500 to 5000 |  |  |  | c1cc(NCC2COc3ccccc3O2)nc(-c2ccnc3[nH]ccc23)c1 (stereo not drawn) [compound 58, N-((2,3-Dihydrobenzo[b][1,4]dioxin-2-yl)methyl)-6-(1H-pyrrolo[2,3-b]pyridin-4-yl)pyridin-2-amine]
42 | 500 to 5000 | 500 to 5000 | < 500 |  |  |  | CNCc1cccc(-c2ccnc3[nH]ccc23)c1 [compound 84, Methyl-[3-(1H-pyrrolo[2,3-b]pyridin-4-yl)-benzyl]-amine]
